Laboratory results published in article PMC7946228, “Discovery of novel candidates for anti-liposarcoma therapies by medium-scale high-throughput drug screening” (PLoS ONE, 2021).
Like-named read-outs stand apart in the source and are kept apart here. Numbered stars: 1 amine (or outer) side, 2 acyl side, 3 side chain; on linkers, the order of the positions; unused ones are H or OH. Bridge positions count the residues as written; N and C are the ends. Square brackets hold non-standard residues; d marks the D form. Peptide text beside a SMILES is read from it. I, II: the chains in the order shown. Actinocin(9to1) = Cc1c2oc3c(C)ccc(C(=O)[*:1])c3nc-2c(C(=O)[*:2])c(N)c1=O; NMeV = CN[C@H](C(=O)O)C(C)C; Sar = CNCC(=O)O

What was measured:
[1] = test system: 13 liposarcoma cell lines; test: High-throughput drug screen, ATP viability 72h; type: cell-based, human; conditions: five concentrations 1 nM to 10 μM, combined viability (AUC)
Method: 349 compounds from anti-cancer Selleck Chemical library were pre-aliquoted at five concentrations, increasing in 10-fold steps from 1 nM to 10 μM, in 384-well plates using an Echo Liquid Handler. Each plate also contained positive (benzethonium chloride, BzCl) and negative (DMSO only) controls. Additional drugs were added manually to the same plates at the same concentration range. Cells were seeded directly into the plates containing the drugs. After 72h viability was assessed through levels of ATP, with Cell Titer Glow assay (Promega, Wisconsin, United States) and luminescence quantified using a […]. Data from drug screens were analyzed with R version 3.4.0 (R_Core_Team, 2017) normalized to median positive (BzCl) and median negative (DMSO) controls using formula: (drug-BzCl)/(DMSO–BzCl), with total viability calculated as the area under the curve over all five drug concentrations, adjusted using qualitatively constrained quantile smoothing splines, R package ‘cobs’ version 1.3–3 [22]. The raw values of positive (BzCl) and median negative (DMSO) controls on each assay plate were aggregated and used to calculate z’-factors, as a measure of assay performance and data quality, with a z’-factor > 0.5 representing acceptable data. For two cases where the z’-factor was below 0.5, strictly standardized mean difference (SSMD) was additionally calculated, giving the population value (β) of SSMD -4 and -5, respectively, indicating good quality. Data visualization was done in R using ‘ComplexHeatmaps’ package version 1.20.0 [24]. The same assay was also used when assessing viability of non-tumor cells and tumor explants.
Thirteen liposarcoma cell lines representing dedifferentiated, well-differentiated, pleomorphic and unspecified subtype liposarcomas were grown in 384-well format in the presence one of the 353 compounds, each at five 10-fold increasing concentrations (from 1 nM to 10 μM) for 72h, after which their viability was scored by measuring ATP levels. The viability was normalized to positive and negative controls and was calculated as sum of viabilities obtained with all the five used concentrations. That means if, e.g., the compound was killing cells at all the tested concentrations, the viability value would be 0, and if the compound was not killing cells at any tested concentrations, the value would be […]. If the compound was reducing the viability to 50% at 100 nM, and to 0% at 1 and 10 μM, the total viability would be calculated as 2 (see scheme on the top of Fig 1A). Within the tested concentration range, the majority of the drugs had very little effect on viability regardless of the target or pathway (Figs 1A and S1). The drug screen included 28 chemotherapeutic drugs currently in clinical use in Norway for the treatment of sarcoma.

[2] = test system: T449 liposarcoma cell line; test: CellTiter-Glo viability, GR50, 72h; type: cell-based, human; conditions: Homo sapiens; T449, 72h; read-out: Half maximum effective concentration corrected for cell growth (GR50)
Method: (§1) Cell viability was measured using the CellTiter-Glo Luminescent Cell Viability Assay (Promega, Wisconsin, United States). For each experiment the same cell numbers were seeded as for the proliferation experiments. Seven drug concentrations were used, starting from 100μM with 10-fold dilutions and also a vehicle control appropriate for each drug (DMSO or ethanol). After 72h of drug or vehicle control treatment levels of ATP were measured with CellTiter-Glo. The data from six to nine biological replicates, each with three technical replicates were collected. A nonlinear regression model with different four-parameter log-logistic function was used for modelling of the drug dose-response using ‘GRmetrics’ R package version 1.8.1 [26]. The calculated GR50 metric is equivalent to the IC50 metric but takes into account the growth rate of cells. Therefore, it estimates better the effect of the compound on cell viability and allows for comparison between different cell lines with different growth rates.

[3] = test system: T1000 liposarcoma cell line; test: CellTiter-Glo viability, GR50, 72h; type: cell-based, human; conditions: Homo sapiens; T1000, 72h; read-out: Half maximum effective concentration corrected for cell growth (GR50)
Method: as §1

[4] = test system: LPS853 liposarcoma cell line; test: CellTiter-Glo viability, GR50, 72h; type: cell-based, human; conditions: Homo sapiens; LPS 853, 72h; read-out: Half maximum effective concentration corrected for cell growth (GR50)
Method: as §1

[5] = test system: FU-DDLS-1 liposarcoma cell line; test: CellTiter-Glo viability, GR50, 72h; type: cell-based, human; conditions: Homo sapiens; FU-DDL S-1, 72h; read-out: Half maximum effective concentration corrected for cell growth (GR50)
Method: as §1

[6] = test system: SA-4 liposarcoma cell line; test: CellTiter-Glo viability, GR50, 72h; type: cell-based, human; conditions: Homo sapiens; SA-4, 72h; read-out: Half maximum effective concentration corrected for cell growth (GR50)
Method: as §1

[7] = test system: LS2 liposarcoma cell line; test: CellTiter-Glo viability, GR50, 72h; type: cell-based, human; conditions: Homo sapiens; LS2, 72h; read-out: Half maximum effective concentration corrected for cell growth (GR50)
Method: as §1

[8] = test system: T778 liposarcoma cell line; test: CellTiter-Glo viability, GR50, 72h; type: cell-based, human; conditions: Homo sapiens; T778, 72h; read-out: Half maximum effective concentration corrected for cell growth (GR50)
Method: as §1

[9] = test system: NRH-LS1 liposarcoma cell line; test: CellTiter-Glo viability, GR50, 72h; type: cell-based, human; conditions: Homo sapiens; NRH-LS1, 72h; read-out: Half maximum effective concentration corrected for cell growth (GR50)
Method: as §1

[10] = test system: GOT3 liposarcoma cell line; test: CellTiter-Glo viability, GR50, 72h; type: cell-based, human; conditions: Homo sapiens; GOT3, 72h; read-out: Half maximum effective concentration corrected for cell growth (GR50)
Method: as §1

[11] = test system: LPS141 liposarcoma cell line; test: CellTiter-Glo viability, GR50, 72h; type: cell-based, human; conditions: Homo sapiens, LPS141; LPS 141, 72h; read-out: Half maximum effective concentration corrected for cell growth (GR50)
Method: as §1

[12] = test system: LiSa-2 liposarcoma cell line; test: CellTiter-Glo viability, GR50, 72h; type: cell-based, human; conditions: Homo sapiens; LiSa-2, 72h; read-out: Half maximum effective concentration corrected for cell growth (GR50)
Method: as §1

[13] = test system: SW872 liposarcoma cell line; test: CellTiter-Glo viability, GR50, 72h; type: cell-based, human; conditions: Homo sapiens, SW872; SW 872, 72h; read-out: Half maximum effective concentration corrected for cell growth (GR50)
Method: as §1

[14] = test system: LPS510 liposarcoma cell line; test: CellTiter-Glo viability, GR50, 72h; type: cell-based, human; conditions: Homo sapiens; LPS 510, 72h; read-out: Half maximum effective concentration corrected for cell growth (GR50)
Method: as §1

[15] = cited from earlier work
liposarcoma cell lines [16] = test: Cell cycle analysis of non-apoptotic cells (propidium iodide); type: cell-based, human; conditions: growth arresting concentration, non-apoptotic fraction
Method: (§2) Cells were treated with drugs at the concentrations corresponding to previously established growth arresting concentrations and collected between 17 and 72h. Time of collection was individual for every drug/cell line combination; cells were collected after the beginning of complete growth inhibition (based on the growth curves data) but only when first signs of morphological change or cell death were visible (estimated microscopically approximately every 2h). After methanol fixation, cells were barcoded with different combinations of Pacific Blue/Pacific Orange dyes (Thermo Fisher Scientific) for different drug treatments. After mixing, cells were incubated in the TUNEL reaction mix for 1h at 37°C, according to the manufacturer’s instructions (Roche, Germany), stained with Streptavidin-Cy5 conjugated Ab and digested with RNAse. Cells were counter-stained with propidium iodide and analyzed using LSR II Flow Cytometer (BD Biosciences, NJ, USA. The data were processed with FlowJo Version 7.6.5 (Tree Star, Ashland, USA). The gating strategy is presented in Fig 3A. Cy-5 positive cells (as compared to control sample) were calculated as apoptotic. Cell cycles of non-apoptotic cells were analyzed using the built in FlowJo Cell Cycle Analysis module. Three independent biological replicates were done for each cell line/drug combination with exception of FU-DDLS-1 and T1000 –for which we only had two replicates available.

liposarcoma cell lines [17] = test: TUNEL apoptosis assay by flow cytometry; type: cell-based, human; conditions: growth arresting concentration, 17-72h, majority of cell lines
Method: as §2

liposarcoma cell lines [18] = test: Drug withdrawal, reversibility of growth arrest; type: cell-based, human
Method: The cellular proliferation rate was measured using the IncuCyte ZOOM live-cell imaging system (Essen Bioscience, Birmingham, UK) with the corresponding software application (version 2013BRev1). First the growth rate for each cell line was established to estimate the seeding numbers of cells corresponding to 15–30% of confluence at the start of the experiment and maximum 70% after 72h. The drug treatment was initiated approximately 18h after seeding. The proliferation rate was measured as cell confluence over time through the acquisition of photographs under phase contrast every third hour for the entire duration of the drug treatment. During the drug treatment, media were not changed, and cells were not split. The growth reducing drug concentration was defined as lowest drug concentration leading to significant decrease of cellular growth between 40 and 72h after start of treatment. To determine that concentration, plots were generated using IncuCyte software and differences in growth between 40 and 72h were calculated using least-square means with the ‘emmeans’ R package version 1.4.3 [25]. Growth arresting concentrations were defined as minimal drug concentration under which cell confluence between 96 and 120h increases by less than 3%. Though growth arrest occurred much earlier, these time points ensured that the growth arrest is a stable phenomenon. These growth arresting concentrations were used for drug withdrawal, apoptosis and cell cycle experiments. All the data were verified with the plots. The presented values correspond to median values from two (T449, all compounds) to five (all cell lines, triptolide) biological replicates.
An important prerequisite for clinical implementation of these compounds as treatment for liposarcoma is irreversibility of the induced growth inhibition. We thus assessed if the drugs were only transiently cytostatic, which is especially important in case of the compounds that seem to work mainly via cell cycle arrest (APO866, GSK2126458). Cells were treated with the compounds at growth arresting concentrations for 120h after which the compounds were removed and cell numbers were monitored for another 72h. […] To irreversibly arrest cell proliferation GSK2126458 had to be used at 10x higher concentrations (100x for GOT3) (S5 Fig). Those concentrations are above physiological ranges (see Table 2), and these effects should be accounted for assessing use of GSK2126458 in clinic.

CC(C)C[C@H](NC(=O)[C@H](Cc1ccccc1)NC(=O)c1cnccn1)B(O)O [Bortezomib]
effect on viability in the drug screen [1]: top candidates from the screen

COc1ncc(-c2ccc3nccc(-c4ccnnc4)c3c2)cc1NS(=O)(=O)c1ccc(F)cc1F [GSK2126458]
IC50 [2]: 10 nM | IC50 [3]: 14 nM | IC50 [4]: 50 nM | IC50 [5]: 96 nM | IC50 [6]: 86 nM | IC50 [7]: 110 nM | IC50 [8]: 52 nM | IC50 [9]: 469 nM | IC50 [10]: 28 nM | IC50 [11]: 182 nM | IC50 [12]: 54 nM | IC50 [13]: 401 nM | IC50 [14]: 82 nM | Cmax ([15]; phase I trial of multiple tumor types): ~100 nM | Cmax ([15]; read-out: clinically relevant concentration (Cmax or Css), values show Cmax or Css (italics), patients): 100 nM | cell cycle phase in which cells are blocked (liposarcoma cell lines [16]): G1 phase | apoptosis (increase in % of apoptotic cells) (liposarcoma cell lines [17]): ≤ 5% | reversibility of growth inhibition after drug removal (liposarcoma cell lines [18]; 120h treatment at growth arresting concentration, then 72h without drug, except T778 with MLN9708): All of the tested cell lines regained their growth rate | time to regain growth rate after withdrawal (liposarcoma cell lines [18]; all tested cell lines, 120h treatment at growth arresting concentration): ≤ 3 h | concentration needed for irreversible growth arrest relative to growth arresting concentration (liposarcoma cell lines [18]; cell lines that resumed growth, 100x for GOT3 with GSK2126458): 10 x higher

Cc1c2oc3c(C)ccc(C(=O)N[C@@H]4C(=O)N[C@H](C(C)C)C(=O)N5CCC[C@H]5C(=O)N(C)CC(=O)N(C)[C@@H](C(C)C)C(=O)O[C@@H]4C)c3nc-2c(C(=O)N[C@@H]2C(=O)N[C@H](C(C)C)C(=O)N3CCC[C@H]3C(=O)N(C)CC(=O)N(C)[C@@H](C(C)C)C(=O)O[C@@H]2C)c(N)c1=O [actinomycin D] (I: T[dV]P[Sar][NMeV] / II: T[dV]P[Sar][NMeV]; ester I:1-I:C, II:1-II:C; linker I:N-II:N via Actinocin(9to1))
effect on viability in the drug screen [1]: significant impact on viability

CC(=O)O[C@@]12CO[C@@H]1C[C@H](O)[C@@]1(C)C(=O)[C@H](O)C3=C(C)[C@@H](OC(=O)[C@H](O)[C@@H](NC(=O)OC(C)(C)C)c4ccccc4)C[C@@](O)([C@@H](OC(=O)c4ccccc4)[C@H]21)C3(C)C [docetaxel]
effect on viability in the drug screen [1]: significant impact on viability

Nc1ccn([C@@H]2O[C@H](CO)[C@@H](O)C2(F)F)c(=O)n1 [gemcitabine]
effect on viability in the drug screen [1]: significant impact on viability

Cc1ccc(C(=O)N(CCCN)[C@@H](c2nc3cc(Cl)ccc3c(=O)n2Cc2ccccc2)C(C)C)cc1 [ispinesib]
effect on viability in the drug screen [1]: top candidates from the screen

CC(=O)O[C@H]1C(=O)[C@@]2(C)[C@H]([C@H](OC(=O)c3ccccc3)[C@]3(O)C[C@H](OC(=O)[C@H](O)[C@@H](NC(=O)c4ccccc4)c4ccccc4)C(C)=C1C3(C)C)[C@]1(OC(C)=O)CO[C@@H]1C[C@@H]2O [paclitaxel]
effect on viability in the drug screen [1]: significant impact on viability

CC[C@]1(O)C[C@H]2CN(CCc3c([nH]c4ccccc34)[C@@](C(=O)OC)(c3cc4c(cc3OC)N(C=O)[C@H]3[C@@](O)(C(=O)OC)[C@H](OC(C)=O)[C@]5(CC)C=CCN6CC[C@]43[C@@H]65)C2)C1 [vincristine]
effect on viability in the drug screen [1]: significant impact on viability
